Data on three compounds can be found in patent publication US6627411B2, “Method for evaluating matrix metalloprotease inhibitory activity” (Shionogi & Co., Ltd., priority 1999, dated 2003).

A word on the IC50: it is the concentration that gives 50% inhibition. Read a high IC50 as a need for much substance.

The target of one experiment is MMP-9 (Homo sapiens, UniProt P14780). Briefly: MMP inhibitory activity IC50, MMP-9. The class given is biochemical.
The target in another experiment is T1, MMP-1 (Homo sapiens, UniProt P03956).
T1 sequence (P03956 100-469): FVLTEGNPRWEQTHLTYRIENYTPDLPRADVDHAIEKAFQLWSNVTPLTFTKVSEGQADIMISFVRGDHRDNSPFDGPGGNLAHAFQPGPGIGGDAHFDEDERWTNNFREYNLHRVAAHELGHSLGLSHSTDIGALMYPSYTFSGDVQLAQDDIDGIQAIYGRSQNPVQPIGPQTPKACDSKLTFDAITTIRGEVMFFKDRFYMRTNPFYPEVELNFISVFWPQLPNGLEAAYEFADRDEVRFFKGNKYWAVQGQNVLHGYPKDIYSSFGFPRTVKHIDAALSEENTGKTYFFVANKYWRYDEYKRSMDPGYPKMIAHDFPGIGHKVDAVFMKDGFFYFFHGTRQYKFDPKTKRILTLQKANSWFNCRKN
Briefly: MMP inhibitory activity IC50, MMP-1. The class given is biochemical.

For the next experiment, the target named is T2, MMP-7 (Homo sapiens, UniProt P09237).
T2 sequence (P09237 95-267): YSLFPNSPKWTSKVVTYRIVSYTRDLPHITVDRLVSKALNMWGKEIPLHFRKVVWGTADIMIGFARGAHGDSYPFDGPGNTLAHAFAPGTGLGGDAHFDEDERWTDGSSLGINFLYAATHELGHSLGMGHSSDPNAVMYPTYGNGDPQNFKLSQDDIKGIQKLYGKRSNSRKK
Briefly: MMP inhibitory activity IC50, MMP-7. It is filed as biochemical.

A further experiment has as its target MMP-3 (Homo sapiens, UniProt P08254). The experiment is described as follows: MMP inhibitory activity IC50, MMP-3. It is filed as biochemical.
The target of another experiment is MMP-14 (Homo sapiens, UniProt P50281). The experiment is described as follows: MMP inhibitory activity IC50, MMP-14. It is filed as biochemical.
Experiment [1] concerns gelatin degradation in cancer tissue (human lung cancer cell line Ma44). Briefly: In situ zymography of tumor mass from Ma44-bearing nude mice after oral administration. The class given is in vivo. The following applies: for Quantitative analysis using Optimas Ver.6 (brightness in each tissue/size in each tissue): 200 mg/kg orally, two hours after administration, vehicle 49.2; for inhibition of the gelatin degradation: nude mice; for Quantitative analysis using Optimas Ver.6: vehicle 53.4. The protocol:
Fifteen g of acid-treated swine cutis gelatin was dissolved in 123 g of pure water, and the solution was added with 1.2 ml of 1,2-bis(vinylsulfonylacetamido)ethane (4%) as a hardening agent. The solution was uniformly applied to a polyethylene terephthalate film undercoated with gelatin so as to obtain a dried membrane having a thickness of about 7 μm, and the membrane was dried to obtain a gelatin thin membrane. The gelatin thin membrane was stored at room temperature until the use.
Human lung cancer cell line Ma44 (CANCER RESEARCH 59, 1231-35 (1999)) that was known to produce MMP-2 in a large amount was used. Nude mice (six weeks aged, female, CLEA Japan, Inc.) were transplanted intraperitoneally with 1×10^5 Ma44 cells, and, 14 days later, BPHA or (−)BPHA was administered orally to the animals at 200 mg/kg. As control, a vehicle (a physiological saline containing 0.4% Tween80, 0.5% carboxymethyl cellulose, and 0.9% benzyl alcohol) was similarly administered. Two hours after the administration, the cancer-bearing mice were autopsied to remove the tumor mass formed at the abdominal wall and the mesenterium, and the mass was subjected to the in situ zymography experiment.
The tumor mass was embedded in OCT Compound (SAKURA), and then Microtone/Cryostat TISSUE TEK II (Miles-Sankyo) was used to prepare […] having a thickness of 8 μm. The […] were placed gently onto the gelatin thin membrane previously prepared to give samples, and then the membranes were placed into a humid bath to prevent them from drying, followed by leaving the membranes to stand in an incubator at 37° C. After reacted for 3.5 hours, the thin membranes were taken out, and stained with a 1% Amido Black solution (Wako Pure Chemical Industries) for 15 minutes. Subsequently, the membranes were treated with a decolorizing solution (70% methanol, 10% acetic acid) for 10 minutes.
The cancer tissue on the thin membrane was observed under light microscopy to determine the area where the gelatin degradation was recognized. Additionally, the slide scanner (Nikon 35 mm film scanner: COOLSCAN II) was used to analyze quantitatively the tone with the software Optimas Ver.6 (Optimas Corporation).
was orally administered at dosages of 0.2, 2.0, 20.0, and 200.0 mg/kg in stead of the administrations of BPHA and (−)BPHA, treatments were conducted for in situ zymography.

For a further experiment, the target named is T3, MMP-2 (Homo sapiens, UniProt P08253).
T3 sequence (P08253 110-660): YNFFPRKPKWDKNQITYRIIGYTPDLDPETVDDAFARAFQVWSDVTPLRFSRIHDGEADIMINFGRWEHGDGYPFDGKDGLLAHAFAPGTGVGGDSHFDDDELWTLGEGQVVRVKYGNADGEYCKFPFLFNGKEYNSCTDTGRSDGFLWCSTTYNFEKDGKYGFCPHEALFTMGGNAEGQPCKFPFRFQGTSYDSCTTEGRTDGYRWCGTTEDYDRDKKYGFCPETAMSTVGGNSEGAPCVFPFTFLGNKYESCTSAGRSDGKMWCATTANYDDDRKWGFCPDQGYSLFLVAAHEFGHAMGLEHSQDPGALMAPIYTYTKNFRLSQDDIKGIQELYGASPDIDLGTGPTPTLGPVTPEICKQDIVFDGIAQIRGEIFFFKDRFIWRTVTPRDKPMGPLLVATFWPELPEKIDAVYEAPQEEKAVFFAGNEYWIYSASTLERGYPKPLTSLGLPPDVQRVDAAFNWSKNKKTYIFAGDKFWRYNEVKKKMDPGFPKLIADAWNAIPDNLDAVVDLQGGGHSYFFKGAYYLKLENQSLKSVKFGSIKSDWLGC
The experiment is described as follows: MMP inhibitory activity IC50, MMP-2. It is filed as biochemical.

Sequence of MMP-9 (P14780 94-707, species assumed): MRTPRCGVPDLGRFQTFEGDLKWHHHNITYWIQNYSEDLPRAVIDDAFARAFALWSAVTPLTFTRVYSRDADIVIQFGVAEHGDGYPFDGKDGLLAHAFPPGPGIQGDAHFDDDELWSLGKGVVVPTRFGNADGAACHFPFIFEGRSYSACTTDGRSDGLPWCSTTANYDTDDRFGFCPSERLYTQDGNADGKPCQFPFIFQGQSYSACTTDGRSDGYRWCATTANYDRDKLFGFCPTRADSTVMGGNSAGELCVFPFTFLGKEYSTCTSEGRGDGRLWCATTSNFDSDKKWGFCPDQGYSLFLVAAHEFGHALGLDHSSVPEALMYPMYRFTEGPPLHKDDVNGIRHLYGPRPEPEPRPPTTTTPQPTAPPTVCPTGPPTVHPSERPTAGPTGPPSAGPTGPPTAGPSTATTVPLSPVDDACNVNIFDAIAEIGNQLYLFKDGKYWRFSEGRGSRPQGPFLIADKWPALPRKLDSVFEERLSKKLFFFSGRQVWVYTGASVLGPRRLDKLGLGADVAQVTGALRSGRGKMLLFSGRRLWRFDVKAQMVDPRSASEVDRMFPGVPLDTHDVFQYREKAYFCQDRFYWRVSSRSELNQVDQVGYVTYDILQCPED
Sequence of MMP-3 (P08254 100-477, species assumed): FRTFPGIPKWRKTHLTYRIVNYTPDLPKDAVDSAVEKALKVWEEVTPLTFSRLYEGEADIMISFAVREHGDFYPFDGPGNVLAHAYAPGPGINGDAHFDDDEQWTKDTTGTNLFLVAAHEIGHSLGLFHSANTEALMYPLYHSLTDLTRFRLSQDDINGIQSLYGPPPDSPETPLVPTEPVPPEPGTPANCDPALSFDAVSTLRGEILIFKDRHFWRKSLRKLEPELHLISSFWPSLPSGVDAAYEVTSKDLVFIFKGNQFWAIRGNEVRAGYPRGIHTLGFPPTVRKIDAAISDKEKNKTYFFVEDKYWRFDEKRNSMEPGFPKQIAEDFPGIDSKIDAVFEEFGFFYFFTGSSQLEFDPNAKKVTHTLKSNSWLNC

For the compound `O=C(NO)[C@H](Cc1ccccc1)NS(=O)(=O)c1ccc(-c2ccccc2)cc1` [(−)BPHA], the IC50 against MMP-9, at MMP-1, at MMP-7, on MMP-3, on MMP-14 and against MMP-2 was greater than 1000 nM each time. Besides, the “Quantitative analysis using Optimas Ver.6 (brightness in each tissue/size in each tissue)” value in experiment [1] worked out at 40.1.
On to `O=C(NO)[C@@H](Cc1ccccc1)NS(=O)(=O)c1ccc(-c2ccccc2)cc1` [BPHA], for which the IC50 is 16 nM at MMP-9; 974 nM on MMP-1; 795 nM on MMP-7; greater than 1000 nM against MMP-3; 17 nM against MMP-14; 12 nM against MMP-2. Moreover, the “Quantitative analysis using Optimas Ver.6 (brightness in each tissue/size in each tissue)” value in experiment [1] turned out to be 8.6.
On to `O=C(O)[C@@H](Cc1c[nH]c2ccccc12)NS(=O)(=O)c1ccc(-c2nnn(-c3ccccc3)n2)cc1` [MMI-166], for which the “inhibition of the gelatin degradation” value was “merely partial inhibition” in experiment [1] (0.2 mg/kg orally), “complete inhibition of the gelatin degradation” in experiment [1] (200.0 mg/kg orally) and “the inhibition was lowered in sequence” in experiment [1] (20.0 to 2.0 mg/kg orally). The “Quantitative analysis using Optimas Ver.6” value in experiment [1] (0.2 mg/kg orally) is listed as 41.3; in experiment [1] (2.0 mg/kg orally) it was 28.6; in experiment [1] (20.0 mg/kg orally) it was 13.7; in experiment [1] (200.0 mg/kg orally), 5.3.
